Assay: xn = mol fraction of the nth substance listed

COC[n+]1ccccc1.O=S(=O)([N-]S(=O)(=O)C(F)(F)F)C(F)(F)F + O
101 kPa, x1 = 0.8483
Settings	electrical conductivity [S/m]	viscosity [mPa·s]
298.1 K	–	37.4
298.15 K	0.608	–
303 K	–	30.6
333 K	–	12

CCCC[n+]1ccn(C)c1.F[P-](F)(F)(F)(F)F + O=C1CCCC1
Settings	viscosity [mPa·s]
298.15 K, 101.3 kPa, x2 = 0	270

CCCC[n+]1ccn(C)c1.O=S(=O)([N-]S(=O)(=O)C(F)(F)F)C(F)(F)F + O=C1CCCCCO1
100 kPa, frequency 0.01 MHz, x1 = 1
Settings	electrical conductivity [S/m]
293.15 K	0.337
298.15 K	0.4
303.15 K	0.472
308.15 K	0.552
313.15 K	0.64
318.15 K	0.733
323.15 K	0.835

CCCC[n+]1ccn(C)c1.O=S(=O)([N-]S(=O)(=O)C(F)(F)F)C(F)(F)F + O=C1CCCCO1
100 kPa, frequency 0.01 MHz, x1 = 1
Settings	electrical conductivity [S/m]
298.15 K	0.4
318.15 K	0.733

CCCC[n+]1ccn(C)c1.O=S(=O)([N-]S(=O)(=O)C(F)(F)F)C(F)(F)F + O=C1CCCO1
100 kPa, x2 = 0
Settings	electrical conductivity [S/m]	viscosity [mPa·s]
298.15 K	0.4	50
303.15 K	0.472	41.24

CC[n+]1ccn(C)c1.O=S(=O)([O-])O + O=C1O[C@H]([C@@H](O)CO)C(O)=C1O + O
viscosity [mPa·s], 100 kPa
Settings	293.15 K	298.15 K	303.15 K	308.15 K	313.15 K	318.15 K
x2 = 0, x1 = 0.0009002	1.05	0.94	0.84	0.76	0.69	0.65
x2 = 0, x1 = 0.001799	1.07	0.95	0.85	0.77	0.7	0.64
x2 = 0, x1 = 0.002696	1.08	0.96	0.86	0.78	0.71	0.64
x2 = 0.0002713, x1 = 0.0008999	1.05	0.95	0.84	0.76	0.7	0.65
x2 = 0.0002768, x1 = 0.001798	1.08	0.96	0.86	0.78	0.71	0.65
x2 = 0.000277, x1 = 0.002695	1.09	0.97	0.87	0.78	0.72	0.65
x2 = 0.0005469, x1 = 0.0008997	1.06	0.96	0.85	0.77	0.71	0.66
x2 = 0.0005489, x1 = 0.001798	1.08	0.96	0.87	0.78	0.72	0.66
x2 = 0.0005544, x1 = 0.002694	1.1	0.98	0.88	0.79	0.72	0.66
x2 = 0.0008183, x1 = 0.0008994	1.07	0.96	0.85	0.78	0.71	0.67
x2 = 0.0008262, x1 = 0.001797	1.09	0.97	0.87	0.79	0.72	0.66
x2 = 0.000834, x1 = 0.002693	1.1	0.98	0.88	0.8	0.73	0.67
x2 = 0.00109, x1 = 0.0008992	1.07	0.97	0.86	0.78	0.72	0.67
x2 = 0.0011, x1 = 0.001797	1.09	0.97	0.88	0.8	0.73	0.67
x2 = 0.00111, x1 = 0.002693	1.11	0.99	0.89	0.8	0.73	0.67
x2 = 0.001362, x1 = 0.000899	1.08	0.97	0.86	0.79	0.72	0.68
x2 = 0.001374, x1 = 0.001796	1.1	0.98	0.88	0.8	0.73	0.67
x2 = 0.00139, x1 = 0.002692	1.11	1	0.89	0.81	0.74	0.68
x2 = 0.001633, x1 = 0.0008987	1.09	0.98	0.87	0.79	0.73	0.68
x2 = 0.001648, x1 = 0.001796	1.11	0.98	0.89	0.81	0.74	0.68
x2 = 0.001666, x1 = 0.002691	1.12	1	0.9	0.81	0.75	0.68
x2 = 0.001906, x1 = 0.0008985	1.09	0.98	0.88	0.8	0.73	0.69
x2 = 0.001923, x1 = 0.001795	1.11	0.99	0.9	0.81	0.74	0.68
x2 = 0.001942, x1 = 0.00269	1.12	1.01	0.9	0.82	0.75	0.69

From the CheMixHub ionic liquid set
